Laboratory results: BindingDB's records for patent US9682141 (Intellikine LLC, 2017)

Key:
[1] = target: Phosphatidylinositol 4,5-bisphosphate 3-kinase catalytic subunit beta isoform (Homo sapiens, UniProt P42338); test: PI 3-Kinase HTRF Assay; settings: 25 °C
[2] = target: Phosphatidylinositol 4,5-bisphosphate 3-kinase catalytic subunit alpha isoform (Homo sapiens, UniProt P42336); test: PI 3-Kinase HTRF Assay; settings: 25 °C
Sequence of Phosphatidylinositol 4,5-bisphosphate 3-kinase catalytic subunit alpha isoform (P42336 whole entry, canonical isoform): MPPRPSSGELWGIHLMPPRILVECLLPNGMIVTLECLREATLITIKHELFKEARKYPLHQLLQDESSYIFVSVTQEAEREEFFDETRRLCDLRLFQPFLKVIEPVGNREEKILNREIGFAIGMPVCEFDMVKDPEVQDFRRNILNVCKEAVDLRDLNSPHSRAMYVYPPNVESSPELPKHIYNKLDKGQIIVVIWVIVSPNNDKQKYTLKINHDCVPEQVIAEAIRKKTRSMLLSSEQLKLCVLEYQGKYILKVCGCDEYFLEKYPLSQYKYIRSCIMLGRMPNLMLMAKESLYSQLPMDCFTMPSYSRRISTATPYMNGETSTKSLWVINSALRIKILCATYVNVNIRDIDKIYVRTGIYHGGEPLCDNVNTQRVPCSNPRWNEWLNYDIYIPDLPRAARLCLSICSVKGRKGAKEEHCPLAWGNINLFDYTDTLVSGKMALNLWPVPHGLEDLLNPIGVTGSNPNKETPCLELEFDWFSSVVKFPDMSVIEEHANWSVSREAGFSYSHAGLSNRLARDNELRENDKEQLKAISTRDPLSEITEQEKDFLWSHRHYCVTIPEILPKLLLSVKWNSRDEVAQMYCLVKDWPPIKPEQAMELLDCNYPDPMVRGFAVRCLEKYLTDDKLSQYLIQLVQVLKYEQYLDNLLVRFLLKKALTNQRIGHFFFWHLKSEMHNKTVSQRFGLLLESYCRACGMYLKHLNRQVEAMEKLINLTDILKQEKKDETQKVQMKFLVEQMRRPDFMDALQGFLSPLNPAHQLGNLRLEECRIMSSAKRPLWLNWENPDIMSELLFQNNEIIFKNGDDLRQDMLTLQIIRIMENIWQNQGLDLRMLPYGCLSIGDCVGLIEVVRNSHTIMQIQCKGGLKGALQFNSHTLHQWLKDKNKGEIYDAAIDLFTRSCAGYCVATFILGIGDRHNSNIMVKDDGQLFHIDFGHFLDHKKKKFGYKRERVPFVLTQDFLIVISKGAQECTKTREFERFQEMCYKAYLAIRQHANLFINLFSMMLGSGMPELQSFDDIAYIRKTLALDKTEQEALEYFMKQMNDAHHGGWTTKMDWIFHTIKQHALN

Sequence of Phosphatidylinositol 4,5-bisphosphate 3-kinase catalytic subunit beta isoform (P42338 whole entry, canonical isoform): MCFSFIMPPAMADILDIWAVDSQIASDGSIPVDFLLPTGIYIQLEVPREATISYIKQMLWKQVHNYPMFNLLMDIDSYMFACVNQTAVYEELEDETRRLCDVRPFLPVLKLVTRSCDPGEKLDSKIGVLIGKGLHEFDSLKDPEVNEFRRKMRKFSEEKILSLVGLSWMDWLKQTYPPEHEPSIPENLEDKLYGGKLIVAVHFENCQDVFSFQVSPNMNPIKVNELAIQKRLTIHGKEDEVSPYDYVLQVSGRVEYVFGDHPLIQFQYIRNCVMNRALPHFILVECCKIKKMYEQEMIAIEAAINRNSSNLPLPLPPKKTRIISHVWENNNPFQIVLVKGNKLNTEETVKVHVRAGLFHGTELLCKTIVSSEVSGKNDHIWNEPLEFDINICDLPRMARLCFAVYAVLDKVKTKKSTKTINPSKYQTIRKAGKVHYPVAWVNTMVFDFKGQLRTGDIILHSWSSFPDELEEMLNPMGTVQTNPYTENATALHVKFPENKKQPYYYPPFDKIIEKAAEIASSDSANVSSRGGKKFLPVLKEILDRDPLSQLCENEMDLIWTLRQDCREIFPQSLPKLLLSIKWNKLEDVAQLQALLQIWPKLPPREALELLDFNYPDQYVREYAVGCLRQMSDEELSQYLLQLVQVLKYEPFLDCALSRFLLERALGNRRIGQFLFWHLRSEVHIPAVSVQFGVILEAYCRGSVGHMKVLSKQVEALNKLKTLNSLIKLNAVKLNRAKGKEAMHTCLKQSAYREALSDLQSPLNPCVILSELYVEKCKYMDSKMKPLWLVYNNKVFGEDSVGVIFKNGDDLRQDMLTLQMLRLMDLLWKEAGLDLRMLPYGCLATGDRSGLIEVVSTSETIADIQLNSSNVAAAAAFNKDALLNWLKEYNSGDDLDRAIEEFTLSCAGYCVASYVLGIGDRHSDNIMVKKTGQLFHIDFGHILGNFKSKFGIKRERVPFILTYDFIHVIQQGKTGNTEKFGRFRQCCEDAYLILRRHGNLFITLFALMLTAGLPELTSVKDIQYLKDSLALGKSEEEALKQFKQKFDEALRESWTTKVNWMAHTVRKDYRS

| IC50 [1] [µM] | IC50 [2] [µM] | Structure (SMILES) |
| --- | --- | --- |
| < 10 |  | Nc1nc2cc(-c3ccc4ncc(-c5ccncc5)n4c3)ccc2o1 [US9682141, 6] |
| < 10 | < 0.1 | Nc1nc2cc(-c3ccc4ncn(-c5ccccc5)c4c3)ccc2o1 [US9682141, 11] |
